Here are results for two compounds from patent US7045495B2 (Sloan-Kettering Institute for Cancer Research, priority 1996, dated 2006).

For one series, the system named is MKN-74. Put plainly: cytotoxicity, Alamar Blue Assay. Type of series: cell-based, human. The following applies: 24 hours; RO 32-2241 10^-6 M, Mitomycin-C 5 μg/ml. From the text: It has been shown that PKC activity can act as an antagonist to apoptosis, whereas PKC inhibition can promote apoptosis. These observations imply that one function of PKC stimulated processes is to inhibit the induction of programmed cell death. Thus, anti-tumor effects of chemotherapeutic agents may be potentiated by PKC inhibitors that contribute to the induction of apoptosis after drug-induced damage. In order to test this hypothesis we have used the human gastric cancer cell MKN-74 to determine whether RO 32-2241 would enhance the cytotoxic effect of the chemotherapeutic agent Mitomycin-C (MMC). Cytotoxicity was measured and quantified using the Alamar Blue Assay. Cells were treated according to one of four conditions: (i) no drug (control) for 24 hours, (ii) RO 32-2241 alone at 10–6 M, (iii) Mitomycin-C alone at 5 μg/ml for 24 hours, (iv) the combination of RO 32-2241 (10^-6 M) and Mitomycin-C (5 μg/ml) for 24 hours. The results are summarized below for percent survival: […]
For orientation: Alamar Blue is a resazurin reagent that responds to reducing activity.

For series [1] the following is noted: intravenous safingol in emulsion; cited from earlier work.
Series [2] in a line: preclinical pharmacology of safingol. The following applies: mouse, in vivo, mice. Here is the method: Based on the mice studies applicants have predicted that in order to achieve meaningful chemopotentiation with either DOX or cisplatin applicants need to deliver the equivalent mouse dose of 5 mg/kg to 20 mg/kg safingol. […] From the pharmacology data obtained thus far from the patients treated with escalating doses of safingol and 45 mg/m^2 of DOX, it appears that applicants are approaching these target levels.

Each structure is given as a SMILES string.

Consider `CO[C@@]12[C@H](COC(N)=O)C3=C(C(=O)C(C)=C(N)C3=O)N1C[C@@H]1N[C@@H]12` [MMC, Mitomycin-C], for which the Percent survival with MKN-74 was determined as 87%.

What is called AUC is the area under the concentration-time curve, a measure of exposure. For orientation: Cmax means the highest concentration seen after dosing. For the compound `CCCCCCCCCCCCCCC[C@H](O)[C@@H](N)CO` [safingol, L-threo-dihydrosphingosine], in series [1], the “clinical pathology and histopathology findings” value was “venous irritation and transient intravascular hemolysis”. In addition, the exposure (AUC) in series [2] (5 mg/kg safingol) was 668 ng·h/mL; in series [2] (20 mg/kg safingol), 2700 ng·h/mL. Further, the peak concentration (Cmax) in series [2] (5 mg/kg safingol) was 1800 ng/mL; in series [2] (20 mg/kg safingol), 7020 ng/mL.
